Measurements published in paper PMC8986850, “Development and exploration of novel substituted thiosemicarbazones as inhibitors of aldose reductase via in vitro analysis and computational study” (Scientific Reports, 2022).

Legend:
[1] = DPPH radical scavenging activity; settings: 100 µM compound, methanolic DPPH 0.025 mg/mL, 517 nm
Experimental: DPPH (2,2-diphenyl-1-picrylhydrazyl) was used to explore the free radical quenching ability of 3a-o so as to provide a gauge of their antioxidant potential. The experiment was conducted according to a previously reported protocol with slight modifications. Percent free radical scavenging activities (% FRSA) of 3a-o were determined by spectrophotometric analysis at 517 nm using a homogenous mixture of methanolic DPPH (0.025 mg/mL) and a 100 µM solution of the tested compound, with ascorbic acid used as a positive control (Fig. 3).

[2] = molecular target: T1, ALR2 (Bos taurus, UniProt P16116); test: ALR2 enzyme inhibition assay (enzyme extracted from calf lenses); format: biochemical, bovine; settings: for IC50: bovine lens ALR2, substrate DL-glyceraldehyde, mean ± SEM of three measurements; for inhibition at 100 µM: bovine lens ALR2, 100 µM inhibitor, read-out: I (%, 100 µM) (ALR2) (converted)
T1 construct: from tissue; host or cells: calf eye lenses
Experimental: Compounds 3a-o were tested against ALR2 to evaluate their inhibitory potential against aldose reductase whereas selectivity was determined via performing ALR1 inhibition assay. For the enzyme inhibition assay, ALR2 and ALR1 were extracted from bovine sources (ALR2 from eyes and ALR1 from kidneys). Moreover, inhibitions studies were also carried out on the expressed ALR2 (human AKR1B1) and inhibition data for ALR2- bovine source and expressed enzyme was compared and analyzed. The protocols for enzyme extraction and expression in the bacterial system are included in the section of “Supporting information”. […] For the purpose of comparison and validation of enzyme inhibition data, these compounds were tested against human AKR1B1 (hAKR1B1) expressed in E. coli BL21 (DE3).
(§1) For the determination of enzyme activity of ALR1 and ALR2, 100 µL of reaction mixture was composed of 20 µL of buffer (100 mM sodium phosphate, pH 6.2), 30 µL of enzyme extract, 20 µL of substrate (10 mM), 20 µL of cofactor (0.1 mM of NADPH) and 10 µL of test compound (1 mM)[6],[21]. The reaction mixture without cofactor was incubated at 32°C for 10 min, then the enzymatic reaction was initiated with the addition of NADPH and monitored for 5 minutes. Similar protocols were followed for ALR1 and ALR2, however the substrate was different for each enzyme, with sodium-D-glucoronate and DL-glyceraldehyde used as the substrates for the ALR1 and ALR2 assays, respectively. […] In addition, similar protocols were adopted for human AKR1B1 that was expressed in E. coli BL21 (DE3), though the determined protein concentration was 12 µg/mL for the expressed enzyme. Detailed protocols for the preparation of ALR1, ALR2 and expressed human AKR1B1 can be found in the supporting information.
(§2) The newly synthesized N-substitute thiosemicarbazones (3a-o) were dissolved in 100% DMSO and diluted with deionized water, keeping the DMSO concentration equal to 0.1% in the assay.
The extraction of ALR2 was carried out from calf lenses via adopting method described in
in (Hayman and Kinoshita 1965) with little modification. The lenses were obtained from slaughterhouse immediately after calf’s slaughtering and stored at -20^◦C until further use. These lense (150-170g) were subjected to homogenization with about three times volume of cold distilled water and then centrifugation was carried out for the homogenate at 10,000 x g for 14 minutes for removal of insoluble lipids particles. Precipitates were discarded and supernatant layer was subjected to 40% saturation of ammonium sulphate and again centrifugation was performed with same parameters for 14 minutes and again precipitates were discarded. […] In the last step, the supernatant was subjected to 75% of saturation with ammonium sulphate to obtain ALR2. Now, the precipitates were collected instead supernatant because precipitated protein was the expected desired ALR2. The precipitated enzyme (ALR2) was redissolved in 50mM solution of sodium chloride and dialyzed for 24 hours against 50mM solution (3.5L) of NaCl. The volume was recorded before and after dialysis, then dialyzed material was treated with liquid nitrogen. The extracted ALR2 was stored in 1mL Eppendorf tube in deep freezer at -80 ^◦C till further enzymatic studies.

[3] = molecular target: T2, human AKR1B1 (hAKR1B1) (Homo sapiens, UniProt P15121); test: Inhibition of expressed human AKR1B1 (E. coli BL21 (DE3)); format: biochemical; settings: for IC50: human AKR1B1 expressed in E. coli BL21 (DE3), mean ± SEM of three measurements; for inhibition at 100 µM: human AKR1B1 expressed in E. coli, 100 µM inhibitor, read-out: I (%, 100 µM) (AKR1B1)
T2 construct: made in house; host or cells: E. coli BL21 (DE3)
Experimental: For the enzyme inhibition assay, ALR2 and ALR1 were extracted from bovine sources (ALR2 from eyes and ALR1 from kidneys). Moreover, inhibitions studies were also carried out on the expressed ALR2 (human AKR1B1) and inhibition data for ALR2- bovine source and expressed enzyme was compared and analyzed. The protocols for enzyme extraction and expression in the bacterial system are included in the section of “Supporting information”. […] For the purpose of comparison and validation of enzyme inhibition data, these compounds were tested against human AKR1B1 (hAKR1B1) expressed in E. coli BL21 (DE3).
as §1, with “The reaction mixture without cofactor was incubated at 32°C for 10 min, then the enzymatic reaction was initiated with the addition of NADPH and monitored for 5 minutes.” left out
as §2
The expression plasmid for aldose reductase (pDONR223_AKR1B1_WT) was gift from Addgene in stable culture. Streaking of this culture has been carried out on LB Agar plate then incubated overnight, after growth of colonies , inoculation was performed in LB medium then incubated this medium in shaking incubator at 37 °C. After 48 hours turbidity was measured when OD=0.6 then some of bacterial growth was prepared as 50% glycerol stock. Others are subjected to plasmid isolation following method Miniprep. Meanwhile E. Coli BL21 De3 cells were made competent then transformation with extracted plasmid (AKR1B1) had been carried out heat shock method. Transformed cell ( E.Coli BL21 DE3+AKR1B1) were grown in 37 °C in shaking incubator for 48 hr. The selection for transformed cells was carried out with the help of antibiotic (spectinomycin 50µg/ml). […] For the expression of aldose reductase , E.coli BL21DE3 were induced with of IPTG(Isopropyl-d-thiogalactopyranoside)[3]. […] The expressed enzyme was stabilized by addition 10 mM Tris–HCl buffer, 0.5 mM EDTA, 5 mM β-marcaptoethanol at pH 8.0 and 20% (v/v) glycerol. Cells were lysed with lysis buffer and then precipitation with ammonium sulfate up to 80% saturation was done . the expressed enzyme was dialyzed overnight against tris buffer. Protein quantification was performed following Bradford protein assay. Aliqoutes were stored at -80 refrigerator.

[4] = molecular target: T3, ALR1 (Bos taurus, UniProt Q3ZCJ2); test: ALR1 enzyme inhibition assay (enzyme extracted from calf kidneys); format: biochemical, bovine; settings: for IC50: bovine kidney ALR1, substrate sodium-D-glucoronate, mean ± SEM of three measurements
T3 construct: The calf’s kidneys were obtained after slaughtering and dissection; from tissue; host or cells: calf kidneys
T3 sequence (Q3ZCJ2 whole entry): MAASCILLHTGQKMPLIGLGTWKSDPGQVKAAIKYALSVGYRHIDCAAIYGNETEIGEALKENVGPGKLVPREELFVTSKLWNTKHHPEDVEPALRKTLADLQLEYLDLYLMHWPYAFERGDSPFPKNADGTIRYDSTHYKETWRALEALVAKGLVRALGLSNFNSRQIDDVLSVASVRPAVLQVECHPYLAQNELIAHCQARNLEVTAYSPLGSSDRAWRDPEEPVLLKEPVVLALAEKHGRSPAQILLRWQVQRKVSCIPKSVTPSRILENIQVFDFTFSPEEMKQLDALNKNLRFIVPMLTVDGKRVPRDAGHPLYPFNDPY
Experimental: Compounds 3a-o were tested against ALR2 to evaluate their inhibitory potential against aldose reductase whereas selectivity was determined via performing ALR1 inhibition assay. For the enzyme inhibition assay, ALR2 and ALR1 were extracted from bovine sources (ALR2 from eyes and ALR1 from kidneys). Moreover, inhibitions studies were also carried out on the expressed ALR2 (human AKR1B1) and inhibition data for ALR2- bovine source and expressed enzyme was compared and analyzed. The protocols for enzyme extraction and expression in the bacterial system are included in the section of “Supporting information”. […] For the purpose of comparison and validation of enzyme inhibition data, these compounds were tested against human AKR1B1 (hAKR1B1) expressed in E. coli BL21 (DE3). We found a similar pattern of enzyme inhibition for the synthesized compounds against extracted enzyme (ALR2) as well as expressed enzyme (hAKR1B1).
as §1, §2
The calf’s kidneys were obtained after slaughtering and dissection, dissolved in 3 volumes of sodium phosphate buffer (10mM) which is composed of 2.0 mM EDTA, 2.5mM β-mercaptoethanol, 0.25M solution of sucrose at pH 7.25. First, the homogenisation was carried out then centrifugation of the homogenate was performed at 12000 x g at 0-2^◦C for 30 minutes. The precipitates containing insoluble lipids were discarded and the collected supernatant layer was treated with 40% saturation of ammonium sulphate. This liquid mixture was subjected to centrifugation at 11000 x g at 0-2^◦C for 30 minutes. Now, precipitates were again discarded and supernatant was collected and treated with 50% ammonium sulphate and procedure was repeated in the same manner as in previous step. In the last step, the saturation of ammonium sulphate was increased up to 75% and supernatant was subjected to same parameter of centrifugation. At this final step, precipitates were obtained and supernatant layer was discarded. The obtained material of precipitates was composed of ALR1and redissolved in initial buffer that was used during homogenisation. Finally, material was dialyzed overnight with same buffer system. The dialyzed fractions containing ALR1 were stored at -80^◦C for further use[5].

SMILES | IC50 [2] [µM] | IC50 [3] [µM] | IC50 [4] [µM] | melting point [°C] | inhibition at 100 µM [2] [%] | inhibition at 100 µM [3] [%] | inhibition at 100 µM ([4]; bovine kidney ALR1, 100 µM inhibitor, read-out: I (%, 100 µM) (ALR1)) [%] | % FRSA (percent free radical scavenging activity) [1] [%]
O=C1O[C@H]([C@@H](O)CO)C(O)=C1O [Ascorbic acid, reference compound] | – | – | – | – | – | – | – | 89.88
CC(C)(C)c1cc(C=NNC(=S)Nc2ccccc2)c(O)c(C(C)(C)C)c1 [Compound 3a, 2-(3,5-di-tert-butyl-2-hydroxybenzylidene)-N-phenylhydrazinecarbothioamide] | 2.99 ± 0.0021 | 3.89 ± 0.0034 | 2.83 ± 0.0034 | 178 to 180 | – | – | – | 79.41
Cc1ccc(NC(=S)NN=Cc2cc(C(C)(C)C)cc(C(C)(C)C)c2O)c(C)c1 [Compound 3b, 2-(3,5-di-tert-butyl-2-hydroxybenzylidene)-N-(2,4-dimethylphenyl)hydrazine carbothioamide] | – | – | – | 186 to 188 | ≤ 44.6 | 27.4 | ≤ 31.6 | 84.05
COc1cccc(NC(=S)NN=Cc2cc(C(C)(C)C)cc(C(C)(C)C)c2O)c1 [Compound 3c, 2-(3,5-di-tert-butyl-2-hydroxybenzylidene)-N-(3-methoxyphenyl)hydrazine carbothioamide] | 4.49 ± 0.0034 | 3.27 ± 0.0035 | 4.21 ± 0.0021 | 173 to 175 | – | – | – | 85.16
Cc1ccccc1NC(=S)NN=Cc1cc(C(C)(C)C)cc(C(C)(C)C)c1O [Compound 3d, 2-(3,5-di-tert-butyl-2-hydroxybenzylidene)-N-(o-tolyl)hydrazinecarbothioamide] | – | – | – | 182 to 184 | – | 3.56 | – | 84.58
CC(C)(C)c1cc(C=NNC(=S)NCc2ccccc2)c(O)c(C(C)(C)C)c1 [Compound 3e, N-benzyl-2-(3,5-di-tert-butyl-2-hydroxybenzylidene)hydrazinecarbothioamide] | – | – | – | 190 to 192 | – | 12.3 | – | 83.20
CC(C)(C)c1cc(C=NNC(=S)NC2CCCCC2)c(O)c(C(C)(C)C)c1 [Compound 3h, N-cyclohexyl-2-(3,5-di-tert-butyl-2-hydroxybenzylidene)hydrazinecarbothioamide] | – | – | – | 168 to 170 | ≤ 39.1 | 38 | – | 83.54
CCCC(CCC)C(=O)O [Valproic acid, reference compound] | – | – | 49.31 ± 0.005 | – | – | – | – | –

Further lines, with some results ahead:

IC50 [2] [µM] | IC50 [3] [µM] | IC50 [4] [µM] | melting point [°C] | inhibition at 100 µM [2] [%] | inhibition at 100 µM [3] [%] | inhibition at 100 µM ([4]; bovine kidney ALR1, 100 µM inhibitor, read-out: I (%, 100 µM) (ALR1)) [%] | SMILES | % FRSA (percent free radical scavenging activity) [1] [%]
2.38 ± 0.0028 | 3.95 ± 0.0038 | – | 176 to 178 | – | – | – | CC(C)(C)c1cc(C=NNC(=S)Nc2ccc(F)cc2)c(O)c(C(C)(C)C)c1 [Compound 3g, 2-(3,5-di-tert-butyl-2-hydroxybenzylidene)-N-(4-fluorophenyl)hydrazine carbothioamide] | 85.89
– | – | – | 184 to 186 | ≤ 39.1 | 22.3 | – | CC(C)(C)c1cc(C=NNC(=S)Nc2ccc(Br)cc2)c(O)c(C(C)(C)C)c1 [Compound 3i, N-(4-bromophenyl)-2-(3,5-di-tert-butyl-2-hydroxybenzylidene)hydrazine carbothioamide] | 81.80
1.46 ± 0.005 | 1.65 ± 0.004 | – | 188 to 190 | 81.5 | – | – | CC(C)(C)c1cc(C=NNC(=S)Nc2ccc(Cl)cc2)c(O)c(C(C)(C)C)c1 [Compound 3l, N-(4-chlorophenyl)-2-(3,5-di-tert-butyl-2-hydroxybenzylidene)hydrazine carbothioamide] | 61.55
– | – | – | 189 to 191 | ≤ 39.1 | 22.6 | – | CC(C)c1ccc(NC(=S)NN=Cc2cc(C(C)(C)C)cc(C(C)(C)C)c2O)cc1 [Compound 3n, 2-(3,5-di-tert-butyl-2-hydroxybenzylidene)-N-(4-isopropylphenyl)hydrazine carbothioamide] | 7.91
